Source: patent publication US11390602B2, “N-alkyl-N-cyanoalkylbenzamide compound and use thereof” (JIANGSU FLAG CHEMICAL INDUSTRY CO., LTD., priority 2017, dated 2022)
Read-outs that look alike come from different tables or passages of the source.

System: Plutella xylostella
Test: Insecticidal effect on Plutella xylostella (leaf disc immersion)
Assay type: in vivo
Settings: foliar, 72 h, read-out: insecticidal activity on Plutella xylostella (mortality %)
Description: The test reagents were all dissolved in a mixed solvent of acetone:N′N′-dimethylcarboxamide (1:1) to give a 1000 mg/L solution. 1% Tween-80 was added as an emulsifier to each solution. These solutions were then diluted with 1% Tween-20 solution in water to give desired concentrations of test solutions. An aqueous solution containing 1% Tween-20 was used as a control.
Third instar larvae of Plutella xylostella were used. Cabbages were washed, air dried, punched into leaf discs, immersed in reagent solutions for 10 sec, taken out, naturally dried and then placed in a Petri dish. 10 third-instar larvae of Plutella xylostella were inoculated to each Petri dish, and three replicates were set. The number of deaths in 3 days was investigated, and the mortality was calculated.

[1] = concentration 0.05 ppm, third instar larvae, 3 days
[2] = concentration 0.5 ppm, third instar larvae, 3 days

SMILES	mortality at 0.01 ppm	mortality at 0.05 ppm	mortality at 0.5 ppm	mortality at 0.05 ppm [1]	mortality at 0.5 ppm [2]	mortality at 0.01 ppm (concentration 0.01 ppm, third instar larvae, 3 days)
CN(C(=O)c1cc(Cl)cc(Cl)c1NC(=O)c1cc(Br)nn1-c1ncccc1Cl)C(C)(C)C#N [Compound 1.15, N-(6-N-((2-cyanopropan-2-yl)-N-methylcarbamoyl)-2,4-dichlorophenyl)-1-(3-chloropyridin-2-yl)-3-bromo-1H-pyrazol-5-carboxamide]	66.7%	86.7%	100%	–	–	–
Cc1cc(Cl)cc(C(=O)NC(C)(C)C#N)c1NC(=O)c1cc(Br)nn1-c1ncccc1Cl [KC1]	–	–	–	45.7%	71.9%	–
CC(C)(C#N)NC(=O)c1cc(Cl)cc(Cl)c1NC(=O)c1cc(Br)nn1-c1ncccc1Cl [KC2]	–	–	–	51.4%	88.2%	28.1%
